Reference: US20100173935A1, “Muscarinic Receptor Agonists that are Effective in the Treatment of Pain, Alzheimer's Disease and Schizophrenia” (AstraZeneca AB, priority 2006, published 2010)
pEC50: −log10 of the molar value.

Key:
[1] = target: T1, hM5 (human Muscarinic receptor subtype 5) (Homo sapiens, UniProt P08912); assay: Human M5 calcium mobilization FLIPR assay; format: cell-based; conditions: CHO cells expressing hM5, Ca2+ release
T1 construct: expressed in transfected cells; host or cells: CHO cells (ATCC)
T1 sequence (P08912 1-532): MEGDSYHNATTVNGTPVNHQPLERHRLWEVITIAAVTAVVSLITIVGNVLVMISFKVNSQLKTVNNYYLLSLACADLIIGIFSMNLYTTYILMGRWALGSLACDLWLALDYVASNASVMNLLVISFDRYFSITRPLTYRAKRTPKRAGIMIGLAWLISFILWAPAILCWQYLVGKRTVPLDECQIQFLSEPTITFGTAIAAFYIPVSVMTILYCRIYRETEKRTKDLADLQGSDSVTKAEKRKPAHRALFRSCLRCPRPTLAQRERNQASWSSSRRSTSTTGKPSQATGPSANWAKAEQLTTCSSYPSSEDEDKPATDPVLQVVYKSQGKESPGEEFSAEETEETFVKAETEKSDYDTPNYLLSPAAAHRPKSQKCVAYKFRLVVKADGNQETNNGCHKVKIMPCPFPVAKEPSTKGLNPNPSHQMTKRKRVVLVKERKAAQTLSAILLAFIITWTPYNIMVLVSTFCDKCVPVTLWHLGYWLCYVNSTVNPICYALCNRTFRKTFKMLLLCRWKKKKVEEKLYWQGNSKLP
Method: (§1) The compound activity in the present invention (EC50 or IC50) was measured using a 384 plate-based imaging assay that monitors drug induced intracellular Ca^2+ release in whole cells. Activation of hM1 (human Muscarinic receptor subtype 1, gene bank access NM_000738), rM1 (rat Muscarinic receptor subtype 1, gene bank access NM_080773), hM3 (human Muscarinic receptor subtype 3, gene bank access NM_000740NM_000740) and hM5 (human Muscarinic receptor subtype 5, gene bank access NM_0121258), receptors expressed in CHO cells (chinese hamster ovary cells, ATCC) was quantified in a Molecular Devices FLIPR II™ instrument as an increase in fluorescent signal. Inhibition of hM3 and hM5 by compounds was determined by the decrease in fluorescent signal in response to 20 nM carbachol activation.
(§2) CHO cells were plated in 384-black polylysine coated plate (Costar) at 8000 cells/well/50 μl for 24 hours or 4000 cells/well for 48 hours in a humidified incubator (5% CO2 and 37° C.) in DMEM/F12 medium without selection agent. Prior to the experiment the cell culture medium was removed from the plates by inversion. A loading solution of 30 μl of Hank's balanced salt solution, 10 mM Hepes and 2.5 mM Probenicid at Ph 7.4 (Cat no. 311-520-VL, Wisent) with 2 μM calcium indicator dye (FLUO-3AM, Molecular Probes F14202) was added to each well. Plates were incubated at 37° C. for 60 minutes prior to start the experiment. The incubation was terminated by washing the cells four times in assay buffer, leaving a residual 25 μl buffer per well. Cell plates were then transferred to the FLIPR, ready for compound additions.
(§3) The day of experiment, carbachol and compounds were diluted in three-fold concentration range (10 points serial dilution) for addition by FLIPR instrument. For all calcium assays, a baseline reading was taken for 30 seconds followed by the addition of 12.5 μl (25 μl for hM1 and rM1) of compounds, resulting in a total well volume of 37.5 μl (50 μl for hM1 and rM1). Data were collected every 1.6 seconds for 300 seconds. For hM3 and hM5 an additional 12.5 μl of carbachol (20 nM final) was added at 300 seconds. After this addition of carbachol (producing a final volume of 50 μl), the FLIPR continued to collect data every 2 seconds for 240 seconds. The fluorescence emission was read using filter 1 (emission 520-545 nm) by the FLIPR on board CCD camera.
(§4) Calcium mobilization output data were calculated as the maximal relative fluorescence unit (RFU) minus the minal value for both compound and agonist reading frame (except for hM1 and rM1 using only the maximal RFU). Data were analyzed using sigmoidal fits of a non-linear curve-fitting program (XLfit version 5.0.6 from ID Business Solutions Limited, Guildford, UK). All EC50 and IC50 values are reported as arithmetic means±standard error of mean of ‘n’ independent experiments.

[2] = target: T2, hM1 (human Muscarinic receptor subtype 1) (Homo sapiens, UniProt P11229); assay: Human M1 calcium mobilization FLIPR assay; format: cell-based; conditions: CHO cells expressing hM1, Ca2+ release
T2 construct: expressed in transfected cells; host or cells: CHO cells (ATCC)
T2 sequence (P11229 1-460): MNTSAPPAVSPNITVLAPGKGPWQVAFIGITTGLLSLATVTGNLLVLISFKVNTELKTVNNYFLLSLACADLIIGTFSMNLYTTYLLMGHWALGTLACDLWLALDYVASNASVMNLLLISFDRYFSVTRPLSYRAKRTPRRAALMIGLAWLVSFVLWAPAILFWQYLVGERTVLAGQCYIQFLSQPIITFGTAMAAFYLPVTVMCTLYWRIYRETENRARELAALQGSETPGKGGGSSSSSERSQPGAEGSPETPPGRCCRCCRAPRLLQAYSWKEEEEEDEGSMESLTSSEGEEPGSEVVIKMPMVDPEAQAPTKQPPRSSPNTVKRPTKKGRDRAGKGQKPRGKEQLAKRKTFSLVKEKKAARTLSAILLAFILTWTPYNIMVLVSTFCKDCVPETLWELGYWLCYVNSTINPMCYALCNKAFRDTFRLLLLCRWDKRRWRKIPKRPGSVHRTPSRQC
Method: as §1, §2, §3, §4

SMILES	pEC50 [1]	pEC50 [2]
CCOC(=O)N1CC[C@H](N2CCC(n3c(=O)[nH]c4ccc(F)cc43)CC2)C1 (single isomer, unassigned) [Example 35]	6.04	8.35
CCOC(=O)N1CC[C@@H](N2CCC(n3c(=O)[nH]c4ccc(F)cc43)CC2)C1 (single isomer, unassigned) [Example 36]	< 4.40	7.39
CCOC(=O)N1CCC(N2CCC(C3C(=O)Nc4ccccc43)CC2)C1 (centres unmarked) [Example 13, Ethyl 3-[4-(2-oxo-2,3-dihydro-1H-indol-3-yl)piperidin-1-yl]pyrrolidine-1-carboxylate]	< 4.40	6.95
CCOC(=O)N1CC[C@@H](N2CCC(n3c(=O)[nH]c4ccccc43)CC2)C1 [Example 16, Ethyl (3R)-3-[4-(2-oxo-2,3-dihydro-1H-benzimidazol-1-yl)piperidin-1-yl]pyrrolidine-1-carboxylate]	< 4.40	6.89
O=C(C1CCCC1)N1CC[C@H](N2CCC(n3c(=O)[nH]c4ccccc43)CC2)C1 [Example 19, 1-{1-[(3S)-1-(cyclopentylcarbonyl)pyrrolidin-3-yl]piperidin-4-yl}-1,3-dihydro-2H-benzimidazol-2-one]	6.08	8.02
O=C1CCCN1CCCC(=O)N1CC[C@H](N2CCC(n3c(=O)[nH]c4ccccc43)CC2)C1 [Example 22, 1-(1-{(3S)-1-[4-(2-oxopyrrolidin-1-yl)butanoyl]pyrrolidin-3-yl}piperidin-4-yl)-1,3-dihydro-2H-benzimidazol-2-one]		7.42
Cn1c(=O)n(C2CCN([C@H]3CCN(C(=O)CCN4CCCC4=O)C3)CC2)c2ccccc21 [Example 24, 1-methyl-3-(1-{(3S)-1-[3-(2-oxopyrrolidin-1-yl)propanoyl]pyrrolidin-3-yl}piperidin-4-yl)-1,3-dihydro-2H-benzimidazol-2-one]	< 4.40	6.69
CCOC(=O)N1CC[C@H](N2CCC(N3C(=O)Cc4ccccc43)CC2)C1 [Example 26, Ethyl (3S)-3-[4-(2-oxo-2,3-dihydro-1H-indol-1-yl)piperidin-1-yl]pyrrolidine-1-carboxylate]	6.47	7.51
O=C1CCCN1CCC(=O)N1CC[C@H](N2CCC(N3C(=O)Cc4ccccc43)CC2)C1 [Example 29, 1-(1-{(3S)-1-[3-(2-oxopyrrolidin-1-yl)propanoyl]pyrrolidin-3-yl}piperidin-4-yl)-1,3-dihydro-2H-indol-2-one]	6.15	8.46
CCOC(=O)N1CC[C@H](N2CCC(n3c(=O)[nH]c4ccc(C#N)cc43)CC2)C1 [Example 41, Ethyl (3S)-3-[4-(6-cyano-2-oxo-2,3-dihydro-1H-benzimidazol-1-yl)piperidin-1-yl]pyrrolidine-1-carboxylate]	6.27	8.47
CCOC(=O)N1CC[C@H](N2CCC(n3c(=O)[nH]c4ccc(Cl)cc43)CC2)C1 [Example 42, Ethyl (3S)-3-[4-(6-chloro-2-oxo-2,3-dihydro-1H-benzimidazol-1-yl)piperidin-1-yl]pyrrolidine-1-carboxylate]		8.52
